Assays:
SV2A = conditions: cited from earlier work
human SV2A = target: T1, human SV2A (Homo sapiens, UniProt Q7L0J3); assay: In vitro radioligand binding assay, hSV2A (HEK293 membranes, 3H-UCB30889); conditions: 37 °C, mean n = 3 to 10, read-out: pIC50 SV2A (converted)
T1 construct: expressed in transfected cells; crude membranes
Method: Reagents and reference compounds used were of analytical grade and obtained from various commercial sources. All cell culture reagents were obtained from Invitrogen (Merelbeke, Belgium). […] Test and reference compounds were dissolved in 100% DMSO or H2O to give 1 or 10 mM stock solution. The final DMSO concentration in assays was 0.1% unless otherwise stated. Cell lines generated at UCB Biopharma were human embryonic kidney (HEK) 293 cells expressing human SV2A, SV2B or SV2C proteins. Cells were cultured in Dulbecco’s Modified Eagle medium. The culture medium was supplemented with foetal bovine serum (FBS, 10%), 2 mM L-glutamine, 50 to 100 U/mL penicillin, 50 to 100 µg/mL streptomycin, and 200 µg/mL hygromycin B. Cells were grown at 37 °C with 95% air. Confluent cells were detached by 10 min incubation at 37 °C in phosphate buffered saline (PBS) containing 0.02% EDTA. Culture flasks were washed with 15 mL of ice-cold PBS. The cell suspension was centrifuged at 1500× g for 10 min at 4 °C. The pellet was homogenized in 15 mM Tris-HCl buffer (pH 7.5) containing 2 mM MgCl2, 0.3 mM EDTA, and 1 mM EGTA (buffer A) using a glass/teflon homogenizer. The crude homogenate was subjected to a freeze and thaw cycle in liquid nitrogen and DNAse (1 µL/mL) was then added. […] The radioactivity trapped on the filters was counted by liquid scintillation in a β-counter. […]

[1] = target: T2, [^18F]UCB-H binding in rat brain (Rattus norvegicus, UniProt Q02563); assay: microPET blocking assay of [18F]UCB-H (Vt, Logan plot, PBIF) after pre-treatment with competitors; format: in vivo, Sprague Dawley rats; conditions: mean ± SEM, n = 5, SV2AL 10 mg/kg, SV2BL and SV2CL 3 mg/kg i.p.
T2 construct: from tissue; host or cells: brain of living Sprague Dawley rats (microPET)
T2 sequence (Q02563 whole entry): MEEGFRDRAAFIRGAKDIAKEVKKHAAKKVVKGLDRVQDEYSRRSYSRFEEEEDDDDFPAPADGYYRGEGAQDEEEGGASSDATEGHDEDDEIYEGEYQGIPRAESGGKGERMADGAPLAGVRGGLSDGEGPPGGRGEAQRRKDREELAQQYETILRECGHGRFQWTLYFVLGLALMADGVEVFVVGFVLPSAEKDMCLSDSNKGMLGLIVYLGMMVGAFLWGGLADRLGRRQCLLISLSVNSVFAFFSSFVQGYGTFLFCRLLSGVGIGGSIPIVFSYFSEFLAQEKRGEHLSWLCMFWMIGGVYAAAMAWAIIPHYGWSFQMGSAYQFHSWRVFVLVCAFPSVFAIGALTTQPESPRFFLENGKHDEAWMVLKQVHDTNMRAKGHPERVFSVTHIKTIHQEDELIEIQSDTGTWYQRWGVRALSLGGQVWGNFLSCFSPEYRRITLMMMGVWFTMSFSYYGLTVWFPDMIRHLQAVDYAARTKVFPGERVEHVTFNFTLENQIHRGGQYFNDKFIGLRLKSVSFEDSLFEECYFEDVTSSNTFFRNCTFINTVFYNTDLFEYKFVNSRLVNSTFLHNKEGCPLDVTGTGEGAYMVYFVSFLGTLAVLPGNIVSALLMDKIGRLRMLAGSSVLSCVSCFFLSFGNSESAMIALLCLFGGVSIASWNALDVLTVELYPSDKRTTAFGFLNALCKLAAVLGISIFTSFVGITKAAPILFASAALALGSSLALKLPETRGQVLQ
Method: The competitors were prepared daily in a vehicle composed of distilled water containing 1% methyl cellulose (viscosity: 15 cP, Sigma-Aldrich, Overijse, Belgium) and 5% dimethyl sulphoxide (DMSO, Sigma-Aldrich, Belgium). The concentrations differed depending on the product specifications and their respective pharmacokinetics, provided by UCB Pharma s.a. The dosing used was 10 mg/kg for SV2AL, 3 mg/kg for SV2BL, and 3 mg/kg for SV2CL. All solutions were administered through the intraperitoneal (i.p.) route in a total volume of 1 mL per kg of body weight. The animals used as a control group (vehicle) received an equal volume of vehicle through the same route of administration.
The animals (n = 5 per group) were anesthetized using 4% isoflurane in air at a flow rate of 1 L/min during induction and 1.5% to 2% isoflurane in air at 0.6 L/min during maintenance. Respiration rate and rectal temperature were continuously measured using a physiological monitoring system (Minerve, France). The temperature was maintained at 37 ± 0.5 °C using an air warming system. […]
PMOD software (Version 3.6, PMOD Technologies, Zurich, Switzerland) was used to process the imaging data. […] Finally, the inverse normalization parameters were calculated and applied to the PMOD rat brain atlas to bring it in the individual PET space. […]

T1 sequence (Q7L0J3 whole entry): as the sequence (Q02563 whole entry) above, with E53D, A62S, A71T, D144E, T154A, S440G, A482S, V572I, L634M counted along it

Row | IC50 (human SV2A) [µM] | mean Vt of [18F]UCB-H in the whole brain of the pre-treated group [1] | SMILES | pIC50 (affinity measured in vitro) (SV2A)
1 |  |  | [11CH3]n1cncc1CN1C[C@@H](c2cc(F)cc(F)c2)CC1=O [[^11C]UCB-A] | 7.9
2 | 6.31 | 6.0 ± 0.3 | CC[C@@H](C(N)=O)N1CCCC1=O [SV2AL, levetiracetam] | 
